Data: ChEMBL document CHEMBL1140977, “Synthesis and screening of a cyclic peptide library: discovery of small-molecule ligands against human prolactin receptor” (Bioorg Med Chem, 2009)
Active and inactive are the calls of the source. The rule behind the calls is not given here. Square brackets hold non-standard residues; d marks the D form. Peptide text beside a SMILES is read from it. NMeL = CN[C@@H](CC(C)C)C(=O)O

Key:
[1] = target: T1, Prolactin receptor (Homo sapiens) (UniProt P16471); experiment: (§1) Binding affinity to human prolactin receptor extracellular binding domain by surface plasmon […]
T1 sequence (whole entry): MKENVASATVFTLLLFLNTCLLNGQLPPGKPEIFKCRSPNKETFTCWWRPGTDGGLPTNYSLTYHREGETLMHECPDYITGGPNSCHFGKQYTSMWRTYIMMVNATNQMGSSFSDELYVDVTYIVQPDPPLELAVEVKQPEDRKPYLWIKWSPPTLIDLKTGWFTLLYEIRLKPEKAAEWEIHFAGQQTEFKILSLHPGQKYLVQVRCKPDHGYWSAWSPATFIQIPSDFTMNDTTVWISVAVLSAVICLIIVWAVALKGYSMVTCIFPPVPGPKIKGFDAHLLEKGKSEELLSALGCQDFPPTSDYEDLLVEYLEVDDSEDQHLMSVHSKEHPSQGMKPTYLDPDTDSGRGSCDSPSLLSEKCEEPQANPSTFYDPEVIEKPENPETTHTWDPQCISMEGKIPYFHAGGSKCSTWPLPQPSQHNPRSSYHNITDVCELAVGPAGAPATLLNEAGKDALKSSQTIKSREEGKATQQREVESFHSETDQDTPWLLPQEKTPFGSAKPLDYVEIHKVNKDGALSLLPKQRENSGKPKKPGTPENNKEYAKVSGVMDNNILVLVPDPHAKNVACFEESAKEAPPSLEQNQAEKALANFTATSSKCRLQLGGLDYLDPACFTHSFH

[2] = target: T2, Prolactin receptor (Homo sapiens, UniProt P16471); experiment: as §1
T2 sequence (P16471 whole entry): T1 sequence (whole entry)

| Compound | Activity [1] | Kd [2] [µM] |
| --- | --- | --- |
| CC(C)C[C@H]1C(=O)N[C@@H](CCC(N)=O)C(=O)N[C@@H](CCCNC(=N)N)C(=O)N[C@@H](Cc2ccccc2)C(=O)N[C@@H](C(C)C)C(=O)N[C@@H](CCC(=O)O)C(=O)N[C@@H](C)C(=O)NCC(=O)N1C (cyclo(AG[NMeL]QRFVE)) | inactive | – |
| CC(C)[C@@H]1NC(=O)[C@H](CCCNC(=N)N)NC(=O)[C@H](CO)NC(=O)[C@H](CCC(N)=O)NC(=O)[C@H](Cc2ccc(O)cc2)NC(=O)[C@H](CCCNC(=N)N)NC(=O)[C@H](C)NC(=O)[C@H](CCC(=O)O)NC1=O (cyclo(ARYQSRVE)) | – | 2 |
| CC(C)C[C@H]1NC(=O)[C@@H](C)NC(=O)[C@H](CCC(=O)O)NC(=O)[C@H](C(C)C)NC(=O)[C@H](CCCNC(=N)N)NC(=O)[C@H](Cc2ccc(O)cc2)NC(=O)[C@H](CO)NC(=O)[C@H](Cc2ccc(O)cc2)NC1=O | – | 3 |
